Data published in the supplement of paper PMC10307832.

How the values were obtained:
Assay in all cases: relative viability (nuclei count vs DMSO), 5 days (fraction); higher = more cells survive
NCI-H23 = system: NCI-H23
Summary of the method: (§1)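 For relative viability, nuclei counts in treated wells were divided by those in vehicle wells. Lung cancer cell lines had been pin-tool dosed in 1536-well plates the day after seeding and cultured for 5 days, then fixed and stained in one step (final 0.05% Triton X-100, 1% formaldehyde, 1 ug/ml Hoechst) and imaged at 4×. Doses were one drug alone or a fixed anchor-drug dose plus five library-drug doses (not always all listed) in √10 steps, and values are duplicate-plate medians.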

EMC-BAC-2 = system: EMC-BAC-2
Summary of the method: as §1

LU99A = system: LU99A
Summary of the method: as §1

NCI-H1666 = system: NCI-H1666
Summary of the method: as §1

HCC-44 = system: HCC-44
Summary of the method: as §1

LK-2 = system: LK-2
Summary of the method: as §1

LXF-289 = system: LXF-289
Summary of the method: as §1

RERF-LC-KJ = system: RERF-LC-KJ
Summary of the method: as §1

ChaGo-K-1 = system: ChaGo-K-1
Summary of the method: as §1

SW 900 = system: SW 900
Summary of the method: as §1

LOU-NH91 = system: LOU-NH91
Summary of the method: as §1

HCC-366 = system: HCC-366
Summary of the method: as §1

NCI-H3122 = system: NCI-H3122
Summary of the method: as §1

EPLC-272H = system: EPLC-272H
Summary of the method: as §1

NCI-H2126 = system: NCI-H2126
Summary of the method: as §1

NCI-H2405 = system: NCI-H2405
Summary of the method: as §1

NCI-H1975 = system: NCI-H1975
Summary of the method: as §1

HCC-78 = system: HCC-78
Summary of the method: as §1

HCC-827 = system: HCC-827
Summary of the method: as §1

NCI-H2085 = system: NCI-H2085
Summary of the method: as §1

LCLC-103H = system: LCLC-103H
Summary of the method: as §1

For `COc1cc(N2CCC(C(N)=O)CC2)ccc1Nc1nc(N)c(Cl)c(Nc2ccccc2S(=O)(=O)C(C)C)n1` [HG-5-88-01] + NC(=O)Nc1cc(-c2cccc(F)c2)sc1C(=O)N[C@H]1CCCNC1 [AZD7762] (partner 0.2 µM), the relative viability (NCI-H23; first compound 0.04 µM) was 0.483, the relative viability (NCI-H23; first compound 0.1265 µM) was 0.27 and the relative viability (NCI-H23; first compound 0.4 µM) was 0.213. For the same molecule, the relative viability (NCI-H23; first compound 1.265 µM) was 0.235, the relative viability (NCI-H23; first compound 4 µM) was 0.174 and the relative viability (EMC-BAC-2; first compound 0.04 µM) was 1.09. It also gave a relative viability (EMC-BAC-2; first compound 0.1265 µM) of 1.21, a relative viability (EMC-BAC-2; first compound 0.4 µM) of 0.922 and a relative viability (EMC-BAC-2; first compound 1.265 µM) of 0.975. For the same molecule, the relative viability (EMC-BAC-2; first compound 4 µM) was 0.65, the relative viability (LU99A; first compound 0.04 µM) was 0.326 and the relative viability (LU99A; first compound 0.1265 µM) was 0.336. The relative viability (LU99A; first compound 0.4 µM) was 0.369, the relative viability (LU99A; first compound 1.265 µM) was 0.366 and the relative viability (LU99A; first compound 4 µM) was 0.295. It also gave a relative viability (NCI-H1666; first compound 0.04 µM) of 0.75, a relative viability (NCI-H1666; first compound 0.1265 µM) of 0.783 and a relative viability (NCI-H1666; first compound 0.4 µM) of 0.779. For the same molecule, the relative viability (NCI-H1666; first compound 1.265 µM) was 0.771, the relative viability (NCI-H1666; first compound 4 µM) was 0.53 and the relative viability (HCC-44; first compound 0.04 µM) was 0.959. For the same molecule, the relative viability (HCC-44; first compound 0.1265 µM) was 0.999, the relative viability (HCC-44; first compound 0.4 µM) was 0.995 and the relative viability (HCC-44; first compound 1.265 µM) was 1.03. The relative viability (HCC-44; first compound 4 µM) was 0.957, the relative viability (LK-2; first compound 0.04 µM) was 0.326 and the relative viability (LK-2; first compound 0.1265 µM) was 0.329. It also gave a relative viability (LK-2; first compound 0.4 µM) of 0.301, a relative viability (LK-2; first compound 4 µM) of 0.157 and a relative viability (LXF-289; first compound 0.04 µM) of 1.11. For the same molecule, the relative viability (LXF-289; first compound 0.1265 µM) was 1.05, the relative viability (LXF-289; first compound 0.4 µM) was 1.06 and the relative viability (LXF-289; first compound 1.265 µM) was 1.12. For the same molecule, the relative viability (LXF-289; first compound 4 µM) was 1.11, the relative viability (RERF-LC-KJ; first compound 0.04 µM) was 0.995 and the relative viability (RERF-LC-KJ; first compound 0.1265 µM) was 1.07. It also gave a relative viability (RERF-LC-KJ; first compound 0.4 µM) of 0.979, a relative viability (RERF-LC-KJ; first compound 1.265 µM) of 0.747 and a relative viability (RERF-LC-KJ; first compound 4 µM) of 0.563. For the same molecule, the relative viability (ChaGo-K-1; first compound 0.04 µM) was 0.842, the relative viability (ChaGo-K-1; first compound 0.1265 µM) was 0.909 and the relative viability (ChaGo-K-1; first compound 0.4 µM) was 0.828. For the same molecule, the relative viability (ChaGo-K-1; first compound 1.265 µM) was 0.852, the relative viability (ChaGo-K-1; first compound 4 µM) was 0.727 and the relative viability (SW 900; first compound 0.04 µM) was 0.582. The relative viability (SW 900; first compound 0.1265 µM) was 0.713, the relative viability (SW 900; first compound 0.4 µM) was 0.583 and the relative viability (SW 900; first compound 1.265 µM) was 0.517. It also gave a relative viability (SW 900; first compound 4 µM) of 0.528, a relative viability (LOU-NH91; first compound 0.04 µM) of 0.809 and a relative viability (LOU-NH91; first compound 0.1265 µM) of 0.677. It also gave a relative viability (LOU-NH91; first compound 0.4 µM) of 0.649, a relative viability (LOU-NH91; first compound 1.265 µM) of 0.551 and a relative viability (LOU-NH91; first compound 4 µM) of 0.514. It also gave a relative viability (HCC-366; first compound 0.04 µM) of 0.286, a relative viability (HCC-366; first compound 0.1265 µM) of 0.294 and a relative viability (HCC-366; first compound 0.4 µM) of 0.249. For the same molecule, the relative viability (HCC-366; first compound 1.265 µM) was 0.234, the relative viability (HCC-366; first compound 4 µM) was 0.199 and the relative viability (NCI-H3122; first compound 0.04 µM) was 0.744. It also gave a relative viability (NCI-H3122; first compound 0.1265 µM) of 0.376, a relative viability (NCI-H3122; first compound 0.4 µM) of 0.315 and a relative viability (NCI-H3122; first compound 1.265 µM) of 0.24. For the same molecule, the relative viability (NCI-H3122; first compound 4 µM) was 0.114, the relative viability (EPLC-272H; first compound 0.04 µM) was 0.215 and the relative viability (EPLC-272H; first compound 0.1265 µM) was 0.222. The relative viability (EPLC-272H; first compound 0.4 µM) was 0.203, the relative viability (EPLC-272H; first compound 1.265 µM) was 0.234 and the relative viability (EPLC-272H; first compound 4 µM) was 0.0657. It also gave a relative viability (NCI-H2126; first compound 0.04 µM) of 0.985, a relative viability (NCI-H2126; first compound 0.1265 µM) of 1.05 and a relative viability (NCI-H2126; first compound 0.4 µM) of 0.961. It also gave a relative viability (NCI-H2126; first compound 1.265 µM) of 1.05, a relative viability (NCI-H2126; first compound 4 µM) of 0.828 and a relative viability (NCI-H2405; first compound 0.04 µM) of 0.769. The relative viability (NCI-H2405; first compound 0.1265 µM) was 0.659, the relative viability (NCI-H2405; first compound 0.4 µM) was 0.569 and the relative viability (NCI-H2405; first compound 1.265 µM) was 0.638. For the same molecule, the relative viability (NCI-H2405; first compound 4 µM) was 0.504, the relative viability (NCI-H1975; first compound 0.04 µM) was 0.757 and the relative viability (NCI-H1975; first compound 0.1265 µM) was 0.756. The relative viability (NCI-H1975; first compound 0.4 µM) was 0.603, the relative viability (NCI-H1975; first compound 1.265 µM) was 0.328 and the relative viability (NCI-H1975; first compound 4 µM) was 0.348. The relative viability (HCC-78; first compound 0.04 µM) was 0.576, the relative viability (HCC-78; first compound 0.1265 µM) was 0.553 and the relative viability (HCC-78; first compound 0.4 µM) was 0.472. It also gave a relative viability (HCC-78; first compound 1.265 µM) of 0.361, a relative viability (HCC-78; first compound 4 µM) of 0.364 and a relative viability (HCC-827; first compound 0.04 µM) of 0.313. The relative viability (HCC-827; first compound 0.1265 µM) was 0.184, the relative viability (HCC-827; first compound 0.4 µM) was 0.167 and the relative viability (HCC-827; first compound 1.265 µM) was 0.129. It also gave a relative viability (HCC-827; first compound 4 µM) of 0.123, a relative viability (NCI-H2085; first compound 0.04 µM) of 1.08 and a relative viability (NCI-H2085; first compound 0.1265 µM) of 0.969. It also gave a relative viability (NCI-H2085; first compound 0.4 µM) of 0.922, a relative viability (NCI-H2085; first compound 1.265 µM) of 0.964 and a relative viability (NCI-H2085; first compound 4 µM) of 0.667. It also gave a relative viability (LCLC-103H; first compound 0.04 µM) of 0.803, a relative viability (LCLC-103H; first compound 0.1265 µM) of 0.761 and a relative viability (LCLC-103H; first compound 0.4 µM) of 0.616. It also gave a relative viability (LCLC-103H; first compound 1.265 µM) of 0.828 and a relative viability (LCLC-103H; first compound 4 µM) of 0.697.
